Assay results taken from ChEMBL document CHEMBL6074712, “Optimization of Potent and Selective Cyclohexyl Acid ERAP1 Inhibitors Using Structure- and Property-Based Drug Design” (ACS Med Chem Lett, 2024).

experiment: physchem; conditions: buffer
Description: Aqueous solubility of compound

solubility kinetic [µg/mL] | SMILES
≥ 172 | O=C(CN1C(=O)COc2ccc(C(F)(F)F)cc21)NC1(C(=O)O)CCCCC1
≥ 157 | O=C(Cn1c(=O)oc2ccc(-c3ccccc3)cc21)NC1(C(=O)O)CCCCC1
≥ 112 | O=C(CN1C(=O)COc2ccc(Cl)cc21)NC1(C(=O)O)CCCCC1
